# Experiments:
# [1] = test system: termites (Coptotermes formosanus, workers); test: Termite antifeeding test on treated filter paper (Test Example 2); format: in vivo; conditions: 10 mg of test compound on filter paper (33 mm in diameter); fifty termites; one week; tests repeated three times
# Description: An acetone solution (1 ml) containing 10 mg of the test compound was dropped on filter paper (33 mm in diameter, Milk sediment disk 1026 produced by Toyo Roshi K.K.) and dried at room temperature overnight. The filter paper was set in a white plastic cup (35 mm in diameter) having one hole on side and one hole in bottom, wherein the diameter of the holes are about 3 mm and termites can easily go through the holes. The white plastic cup was put into the 200 ml-volume plastic cup having several holes on the bottom which was covered with gypsum in 2 cm thickness. Fifty termites (Coptotermes formosanus, workers) were put in the 200 ml-volume plastic cup and kept in the container, the bottom of which was filled with wet cotton wool. The container was covered for keeping wet therein. After one week, the filter paper was recovered, dried well at room temperature, and then the weight was measured. The decreasing ratio of the weight was calculated. The tests were repeated three times. For a reference, filter paper treated with only 1 ml of acetone was tested and the decreasing ratio of the weight was calculated in the same manner.
# [2] = test system: termites (Coptotermes formosanus, workers); test: Termite antifeeding test on treated Japanese black pine wood (Test Example 1); format: in vivo; conditions: 100 termites, 3 weeks in the dark
# Description: A designated amount (10 mg or 100 mg) of octyl gallate was dissolved in 0.3 ml of acetone and uniformly spread on a piece of Japanese black pine wood (1 cm×1 cm×2 cm) with pipette. The wood was allowed to stand overnight at room temperature, dried at 60° C. in a thermostat for 3 days, and then the weight of the wood was measured. The bottom of a 200 ml-volume plastic cup having several holes on the bottom was covered with gypsum in 2 cm thickness. The wood prepared above and 100 termites (Coptotermes formosanus, workers) were put in the plastic cup and kept in the dark for 3 weeks. For that time, cotton wool containing water was set under the plastic cup, and the gypsum was kept wet through the hole. After 3 weeks, the wood was recovered, dried at 60° C. in a thermostat for 3 days, and then the weight of the wood was measured. The decreasing ratio of the weight was calculated. For a reference, a piece of Japanese black pine wood treated with only 0.3 ml of acetone was tested and the decreasing ratio of the weight was calculated in the same manner.
SMILES,The decreasing ratio of the weight (%) [1] [%],The decreasing ratio of the weight (%) ([2]; 10 mg of octyl gallate on Japanese black pine wood (1 cm×1 cm×2 cm)),The decreasing ratio of the weight (%) ([2]; 100 mg of octyl gallate on Japanese black pine wood (1 cm×1 cm×2 cm))
"CCCCCCCCCCOC(=O)c1cc(O)c(O)c(O)c1 [Decyl gallate, decyl gallate]",0,–,–
CCCCCCCCCCCCOC(=O)c1cc(O)c(O)c(O)c1 [Dodecyl gallate],1.13,–,–
"CCCCCCCCOC(=O)c1cc(O)c(O)c(O)c1 [octyl gallate, Octyl gallate]",–,2.4,0.9

# Source: patent US20060009519A1, “Antifeeding method against insects” (SUMITOMO CHEMICAL COMPANY, LIMITED, priority 2004, published 2006)
